Assay results reported in patent US20010036955A1, “Method of inhibiting angiogenesis” (Genentech, Inc., priority 1998, published 2001).

Columns and labels:
Assay type in all cases: cell-based, human
[1] = tested on: PAI-1 mRNA; test: Real time RT-PCR (Taqman) assay in HUVEC; settings: at 24 hr; HUVEC in three dimensional collagen gels; 10:M 15d-PGJ2
Protocol: (§1) This technique has been used to quantitatively monitor mRNA expression and has been described in detail previously (Heid, C. A. et al., (1996) Genome Methods 6:986-994; Gerber, H. et al., (1997) J. Biol. Chem. 272:23659-23667). Total RNA was extracted from HUVEC cultured in three dimensional collagen gels or on collagen-coated flasks for various times in 1× basal medium consisting of M199 supplemented with 1%FBS, 1× ITS, 2 mM L-glutamine, 50 μg/ml ascorbic acid, 26.5 mM NaHCO3, 100 U/ml penicillin and 100 U/ml streptomycin supplemented with 40 ng/ml bFGF (basic fibroblast growth factor), 40 ng/ml VEGF and 80 nM PMA […]. […] The primers and probes used were as follows: […] forward primer 5′-[…]-3′ (SEQ ID NO: 7), reverse primer 5′-CACCATCGCGACCAGATG-3′ (SEQ ID NO: 8), and probe 5′-[…]-3′ (SEQ ID NO: 9); […] forward primer 5′-TGACCTGCGGCAACTGG-3′ (SEQ ID NO: 10), reverse primer 5′-[…]-3′ (SEQ ID NO: 11), and probe 5′-[…]-3′ (SEQ ID NO: 12); human PPARβ gene forward primer 5′-[…]-3′ (SEQ ID NO: 13), reverse primer 5′-[…]-3′ (SEQ ID NO: 14), and probe 5′-[…]-3′ (SEQ ID NO: 15); human Flk/KDR gene forward primer 5′-[…]-3′ (SEQ ID NO: 16), reverse primer 5′-[…]-3′ (SEQ ID NO: 17), and probe 5′-[…]-3′ (SEQ ID NO: 18); human Flt-1 gene forward primer 5′-[…]-3′ (SEQ ID NO: 19), reverse primer 5′-[…]-3′ (SEQ ID NO: 20), and probe 5′-[…]-3′ (SEQ ID NO: 21); human uPA gene forward primer 5′-[…]-3′ (SEQ ID NO: 22), reverse primer 5′-GCGCACACCTGCCCTC-3′ (SEQ ID NO: 23), and probe 5′-[…]-3′ (SEQ ID NO: 24); human PAI-1 gene forward primer 5′-TCGTCCAGCGGGATCTGA-3′ (SEQ ID NO: 25), reverse primer 5′-GTGCTCCGGAACAGCCTG-3′ (SEQ ID NO: 26), and probe 5′-[…]-3′ (SEQ ID NO: 27); human glyceraldehyde-3-phosphate dehydrogenase (GAPDH) gene forward 5′-GAAGGTGAAGGTCGGAGTC-3′ (SEQ ID NO: 28), reverse 5′-[…]-3′ (SEQ ID NO: 29), and probe 5′-[…]-3′ (SEQ ID NO: 30). Total RNA (100 ng) was added to a 50 μl RT-PCR reaction mixture according to the manufacturer's protocol (Roche Molecular Systems, Inc., Branchburg, N.J.). The thermal cycling conditions included 1 cycle at 48° C. for 30 min, 1 cycle at 95° C. for 10 min, 40 cycles at 95° C. for 15 s, at 60° C. for 1 min and finally hold at 25° C. for 2 min. Standard curves for expression of each gene were generated by serial dilution of the total RNA isolated from HUVEC. […] Therefore, the relative mRNA expression of each gene was normalized to the level of GAPDH in the same RNA preparation.

[2] = tested on: Flt-1 mRNA; test: Real time RT-PCR (Taqman) assay in HUVEC; settings: HUVEC in three dimensional collagen gels; VEGF, bFGF, PMA; 10:M 15d-PGJ2
Protocol: as §1

[3] = tested on: uPA mRNA; test: Real time RT-PCR (Taqman) assay in HUVEC; settings: at 4 hr; HUVEC in three dimensional collagen gels; 10:M 15d-PGJ2
Protocol: as §1

[4] = tested on: Flk/KDR mRNA; test: Real time RT-PCR (Taqman) assay in HUVEC; settings: HUVEC in three dimensional collagen gels; VEGF, bFGF, PMA; 10:M 15d-PGJ2
Protocol: as §1

[5] = tested on: HUVEC proliferation; test: Proliferation assay (BrdU incorporation); settings: type I collagen-coated surface, VEGF, bFGF and PMA, read-out: inhibition of endothelial cell (HUVEC) proliferation, IC50
Protocol: Cells were cultured in above medium in the presence of drugs or vehicle for 4 hr. 5 μl (100 μM) of 5′-bromo-2′-deoxyuridine (BrdU) was added in a final volume of 100 μl/well and cells were incubated for another 20 hr. BrdU incorporation was evaluated by an ELISA kit from Boehringer Mannheim (Indianapolis, Ind.).

[6] = tested on: HUVEC tube formation; test: Endothelial tube assay of Example 7 (average tube length, 3-D type I collagen gels); settings: 10 μM; 24 h; 3-D collagen gels
Protocol: Collagen gels were formed by mixing together ice-cold gelation solution (IOX M199, H2O, 0.53M NaHCO3, 200 mM L-glutamine, type I collagen, 0.1M NaOH, 100:27.2:50:10:750:62.5 by volume) and cells in 1× basal medium (see below) at a concentration of 3×10^6 cells/ml at a ratio of 4 volumes gelation solution: 1 volume of cells (18). After gelation at 37° C. for 30 min, the gels were overlaid with 1× basal medium consisting of M199 supplemented with […], 1× ITS, 2 mM L-glutamine, […] ascorbic acid, 26.5 mM NaHCO3, 100 U/ml penicillin and 100 U/ml streptomycin supplemented with 40 ng/ml bFGF, 40 ng/ml VEGF, 80 nM PMA or the combination of PMA (80 nM), bFGF and VEGF (40 ng/ml each). All drugs were added to the 1× basal medium immediately after gelation. To quantify tube formation, the average tube length was determined by measuring total tube length (long axis) in three consecutive layers of a low power (10×) field using Openlab software (Improvision Inc, England). Each layer was separated by 100 μm.

Structure (SMILES): CCCCC/C=C/C=C1/C(=O)C=CC1C/C=C\CCCC(=O)O (stereo not drawn) [15d-PGJ2, 15-deoxy-delta^12,14-PGJ2]
- PAI-1 gene expression [1]: increased
- Flt-1 mRNA induction by growth factors [2]: inhibited the induction
- uPA mRNA [3]: reduced
- KDR mRNA induction by growth factors [4]: inhibited the induction
- IC50 [5]: 2400 nM
- PMA or PMA in combination with bFGF and VEGF induced HUVEC tube formation [6]: blocked
